According to patent publication US20230312605A1, “PYRROLO[2,1-F][1,2,4]TRIAZINES AND PREPARATION AND USES THEREOF” (BioSplice Therapeutics, Inc., priority 2021, published 2023):

Biological target: recombinant DYRK1A kinase (Homo sapiens (Human), UniProt Q13627)
Assay: DYRK1A kinase assay (Ser/Thr 18 peptide Z-lyte FRET assay)
Assay type: biochemical
Conditions: recombinant DYRK1A 0.25 µg/mL, ATP 15 µM, Ser/Thr peptide 18 4 µM, one hour at room temperature; table head prints EC50, method says IC50
In short: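 Z-lyte FRET format: 1 h room-temperature reaction of 15 µM ATP, 4 µM Ser/Thr 18 peptide and 0.25 µg/mL recombinant human DYRK1A, in duplicate over 11 compound concentrations up to 10 µM. IC50 was derived by non-linear regression of percent phosphorylation calculated from coumarin/fluorescein emission ratios.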

| Structure (SMILES) | EC50 |
| --- | --- |
| Cc1nc2ccc(-c3ccn4nc(N[C@H]5CC[C@@](C)(O)CC5)ncc34)nc2n1CC(F)(F)F [Compound 1868, cis-1-Methyl-4-((5-(2-methyl-3-(2,2,2-trifluoroethyl)-3H-imidazo[4,5-b]pyridin-5-yl)pyrrolo[2,1-f] [1,2,4]triazin-2-yl)amino)cyclohexan-1-ol] | 9 nM |
| Cc1nc2ccc(-c3ccn4nc(N[C@H]5CC[C@@](C)(O)CC5)ncc34)nc2n1CC(C)(C)C#N [Compound 1869, 3-(5-(2-((cis-4-Hydroxy-4-methylcyclohexyl)amino)pyrrolo[2,1-f][1,2,4]triazin-5-yl)-2-methyl-3H-imidazo[4,5-b]pyridin-3-yl)-2,2-dimethylpropanenitrile] | 16 nM |
| Cc1nc2ccc(-c3ccn4nc(NC5CCC(F)(F)CC5)ncc34)nc2n1CC(C)(C)O [Compound 1870, 1-(5-(2-((4,4-Difluorocyclohexyl)amino)pyrrolo[2,1-f][1,2,4]triazin-5-yl)-2-methyl-3H-imidazo[4,5-b]pyridin-3-yl)-2-methylpropan-2-ol] | 78 nM |
| Cc1nc2ccc(-c3ccn4nc(NC5CCOCC5)ncc34)nc2n1CC(C)(C)O [Compound 1871, 2-Methyl-1-(2-methyl-5-(2-((tetrahydro-2H-pyran-4-yl)amino)pyrrolo[2,1-f][1,2,4]triazin-5-yl)-3H-imidazo[4,5-b]pyridin-3-yl)propan-2-ol] | 72 nM |
| Cc1nc2ccc(-c3ccn4nc(N[C@H]5CC[C@@](C)(O)CC5)ncc34)nc2n1CC(=O)N(C)C [Compound 1872, 2-(5-(2-((cis-4-Hydroxy-4-methylcyclohexyl)amino)pyrrolo[2,1-f][1,2,4]triazin-5-yl)-2-methyl-3H-imidazo[4,5-b]pyridin-3-yl)-N,N-dimethylacetamide] | 498 nM |
| Cc1nc2ccc(-c3ccn4nc(NC5CCC(F)(F)CC5)ncc34)nc2n1CC1CNC1 [Compound 1873, 5-(3-(Azetidin-3-ylmethyl)-2-methyl-3H-imidazo[4,5-b]pyridin-5-yl)-N-(4,4-difluorocyclohexyl)pyrrolo[2,1-f][1,2,4]triazin-2-amine] | 131 nM |

The remaining lines, values ahead:

| EC50 | Structure (SMILES) |
| --- | --- |
| 14 nM | Cc1nc2ccc(-c3ccn4nc(N[C@H]5CC[C@@](C)(O)CC5)ncc34)nc2n1CC1COC1 [Compound 1875, cis-1-Methyl-4-((5-(2-methyl-3-(oxetan-3-ylmethyl)-3H-imidazo[4,5-b]pyridin-5-yl)pyrrolo[2,1-f][1,2,4]triazin-2-yl)amino)cyclohexan-1-ol] |
| 2 nM | [2H]C([2H])([2H])O[C@H]1CC[C@@H](Nc2ncc3c(-c4cnc5nc(C)n(CC(F)F)c5c4)ccn3n2)CC1 [Compound 1876] |
| 2 nM | Cc1nc2ncc(-c3ccn4nc(N[C@H]5CC[C@@H](OCC(F)F)CC5)ncc34)cc2n1CC(F)F [Compound 1877] |
| 2 nM | Cc1nc2ncc(-c3ccn4nc(N[C@H]5CC[C@@H](OCCO)CC5)ncc34)cc2n1CC(F)F [Compound 1878, 2-((cis-4-((5-(1-(2,2-Difluoroethyl)-2-methyl-1H-imidazo[4,5-b]pyridin-6-yl)pyrrolo[2,1-f][1,2,4]triazin-2-yl)amino)cyclohexyl)oxy)ethan-1-ol] |
| 2 nM | Cc1nc2ncc(-c3ccn4nc(N[C@H]5CC[C@](C)(O)CC5)ncc34)cc2n1CC(F)F [Compound 1879, trans-4-((5-(1-(2,2-Difluoroethyl)-2-methyl-1H-imidazo[4,5-b]pyridin-6-yl)pyrrolo[2,1-f][1,2,4]triazin-2-yl)amino)-1-methylcyclohexan-1-ol] |
| 3 nM | Cc1nc2ncc(-c3ccn4nc(NC5CCC6(CC5)OCCO6)ncc34)cc2n1CC(F)F [Compound 1880, 5-(1-(2,2-Difluoroethyl)-2-methyl-1H-imidazo[4,5-b]pyridin-6-yl)-N-(1,4-dioxaspiro[4.5]decan-8-yl)pyrrolo[2,1-f][1,2,4]triazin-2-amine] |
